Results: PubChem BioAssay (NCI)
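The compound was tested at five concentrations on cells cultured in 96-well plates, with a 48-hour exposure period. GI50 is the concentration that inhibits growth by half. TGI is the concentration that stops growth completely.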

How the values were obtained:
Experiment in all cases: NCI anticancer screen, dose series, 48 h
786-0 renal = system: 786-0 renal
A498 renal = system: A498 renal
A549 NSCLC = system: A549 NSCLC
ACHN renal = system: ACHN renal
BT-549 breast = system: BT-549 breast
CAKI-1 renal = system: CAKI-1 renal
CCRF-CEM leukemia = system: CCRF-CEM leukemia
COLO 205 colon = system: COLO 205 colon
DU-145 prostate = system: DU-145 prostate
EKVX NSCLC = system: EKVX NSCLC
HCC-2998 colon = system: HCC-2998 colon
HCT-116 colon = system: HCT-116 colon
HCT-15 colon = system: HCT-15 colon
HL-60(TB) leukemia = system: HL-60(TB) leukemia
HOP-62 NSCLC = system: HOP-62 NSCLC
HOP-92 NSCLC = system: HOP-92 NSCLC
HS 578T breast = system: HS 578T breast
HT29 colon = system: HT29 colon
IGROV1 ovarian = system: IGROV1 ovarian
K-562 leukemia = system: K-562 leukemia
KM12 colon = system: KM12 colon
LOX IMVI melanoma = system: LOX IMVI melanoma
M14 melanoma = system: M14 melanoma
MALME-3M melanoma = system: MALME-3M melanoma
MCF7 breast = system: MCF7 breast
MDA-MB-231 breast = system: MDA-MB-231 breast
MDA-MB-435 = system: MDA-MB-435
MOLT-4 leukemia = system: MOLT-4 leukemia
NCI-H226 lung = system: NCI-H226 lung
NCI-H23 lung = system: NCI-H23 lung
NCI-H460 lung = system: NCI-H460 lung
NCI-H522 lung = system: NCI-H522 lung
NCI/ADR-RES ovarian = system: NCI/ADR-RES ovarian
OVCAR-3 ovarian = system: OVCAR-3 ovarian
OVCAR-4 ovarian = system: OVCAR-4 ovarian
OVCAR-5 ovarian = system: OVCAR-5 ovarian
OVCAR-8 ovarian = system: OVCAR-8 ovarian
PC-3 prostate = system: PC-3 prostate
RPMI-8226 leukemia = system: RPMI-8226 leukemia
RXF 393 renal = system: RXF 393 renal
SF-268 CNS = system: SF-268 CNS
SF-295 CNS = system: SF-295 CNS
SF-539 CNS = system: SF-539 CNS
SK-MEL-2 melanoma = system: SK-MEL-2 melanoma
SK-MEL-28 melanoma = system: SK-MEL-28 melanoma
SK-MEL-5 melanoma = system: SK-MEL-5 melanoma
SK-OV-3 ovarian = system: SK-OV-3 ovarian
SN12C renal = system: SN12C renal
SNB-19 CNS = system: SNB-19 CNS
SNB-75 CNS = system: SNB-75 CNS
SR leukemia = system: SR leukemia
SW-620 colon = system: SW-620 colon
T-47D breast = system: T-47D breast
TK-10 renal = system: TK-10 renal
U251 CNS = system: U251 CNS
UACC-257 melanoma = system: UACC-257 melanoma
UACC-62 melanoma = system: UACC-62 melanoma
UO-31 renal = system: UO-31 renal

O=C1c2c(c3c4cc(O)ccc4oc3c3[nH]c4ccccc4c23)C(=O)N1O
GI50 (786-0 renal): 0.752 µM
TGI (786-0 renal): 6.62 µM
GI50 (A498 renal): 3.16 µM
TGI (A498 renal): 9.48 µM
GI50 (A549 NSCLC): 3.29 µM
TGI (A549 NSCLC): 18.3 µM
GI50 (ACHN renal): 0.36 µM
TGI (ACHN renal): 1.76 µM
GI50 (BT-549 breast): 0.423 µM
TGI (BT-549 breast): 1.49 µM
GI50 (CAKI-1 renal): 0.787 µM
TGI (CAKI-1 renal): 3.74 µM
GI50 (CCRF-CEM leukemia): 0.277 µM
TGI (CCRF-CEM leukemia): 9.86 µM
GI50 (COLO 205 colon): 1.8 µM
TGI (COLO 205 colon): 9.36 µM
GI50 (DU-145 prostate): 0.626 µM
TGI (DU-145 prostate): 11.2 µM
GI50 (EKVX NSCLC): 2.08 µM
TGI (EKVX NSCLC): 8.04 µM
GI50 (HCC-2998 colon): 1.35 µM
TGI (HCC-2998 colon): 3.59 µM
GI50 (HCT-116 colon): 1.09 µM
TGI (HCT-116 colon): 2.81 µM
GI50 (HCT-15 colon): 1.45 µM
TGI (HCT-15 colon): 7.19 µM
GI50 (HL-60(TB) leukemia): 0.46 µM
TGI (HL-60(TB) leukemia): 7.83 µM
GI50 (HOP-62 NSCLC): 0.721 µM
TGI (HOP-62 NSCLC): 4.47 µM
GI50 (HOP-92 NSCLC): 1.14 µM
TGI (HOP-92 NSCLC): 4.6 µM
GI50 (HS 578T breast): 1.46 µM
TGI (HS 578T breast): 5.76 µM
GI50 (HT29 colon): 1.6 µM
TGI (HT29 colon): 3.8 µM
GI50 (IGROV1 ovarian): 0.724 µM
TGI (IGROV1 ovarian): 2.93 µM
GI50 (K-562 leukemia): 0.428 µM
TGI (K-562 leukemia): 13.9 µM
GI50 (KM12 colon): 1.91 µM
TGI (KM12 colon): 5.78 µM
GI50 (LOX IMVI melanoma): 0.258 µM
TGI (LOX IMVI melanoma): 1.02 µM
GI50 (M14 melanoma): 0.371 µM
TGI (M14 melanoma): 3.87 µM
GI50 (MALME-3M melanoma): 0.851 µM
TGI (MALME-3M melanoma): 5.08 µM
GI50 (MCF7 breast): 0.323 µM
TGI (MCF7 breast): 5.21 µM
GI50 (MDA-MB-231 breast): 1.18 µM
TGI (MDA-MB-231 breast): 4.71 µM
GI50 (MDA-MB-435): 0.627 µM
TGI (MDA-MB-435): 2.75 µM
GI50 (MOLT-4 leukemia): 0.32 µM
TGI (MOLT-4 leukemia): 1.34 µM
GI50 (NCI-H226 lung): 1.32 µM
TGI (NCI-H226 lung): 5.01 µM
GI50 (NCI-H23 lung): 0.411 µM
TGI (NCI-H23 lung): 2.25 µM
GI50 (NCI-H460 lung): 0.414 µM
TGI (NCI-H460 lung): 2.89 µM
GI50 (NCI-H522 lung): 0.22 µM
TGI (NCI-H522 lung): 1.22 µM
GI50 (NCI/ADR-RES ovarian): 1.57 µM
TGI (NCI/ADR-RES ovarian): 29.7 µM
GI50 (OVCAR-3 ovarian): 1.57 µM
TGI (OVCAR-3 ovarian): 5.23 µM
GI50 (OVCAR-4 ovarian): 2.17 µM
TGI (OVCAR-4 ovarian): 10.7 µM
GI50 (OVCAR-5 ovarian): 2.77 µM
TGI (OVCAR-5 ovarian): 9.3 µM
GI50 (OVCAR-8 ovarian): 0.82 µM
TGI (OVCAR-8 ovarian): 10.7 µM
GI50 (PC-3 prostate): 0.812 µM
TGI (PC-3 prostate): 5.55 µM
GI50 (RPMI-8226 leukemia): 1.41 µM
TGI (RPMI-8226 leukemia): 8.01 µM
GI50 (RXF 393 renal): 0.872 µM
TGI (RXF 393 renal): 2.26 µM
GI50 (SF-268 CNS): 0.553 µM
TGI (SF-268 CNS): 4.27 µM
GI50 (SF-295 CNS): 0.488 µM
TGI (SF-295 CNS): 5.58 µM
GI50 (SF-539 CNS): 0.315 µM
TGI (SF-539 CNS): 1.26 µM
GI50 (SK-MEL-2 melanoma): 1.38 µM
TGI (SK-MEL-2 melanoma): 3.08 µM
GI50 (SK-MEL-28 melanoma): 1.15 µM
TGI (SK-MEL-28 melanoma): 5.46 µM
GI50 (SK-MEL-5 melanoma): 0.275 µM
TGI (SK-MEL-5 melanoma): 0.815 µM
GI50 (SK-OV-3 ovarian): 0.941 µM
TGI (SK-OV-3 ovarian): 3.3 µM
GI50 (SN12C renal): 0.468 µM
TGI (SN12C renal): 5.79 µM
GI50 (SNB-19 CNS): 0.542 µM
TGI (SNB-19 CNS): 5.53 µM
GI50 (SNB-75 CNS): 1.02 µM
TGI (SNB-75 CNS): 2.24 µM
GI50 (SR leukemia): 0.274 µM
TGI (SR leukemia): 1.93 µM
GI50 (SW-620 colon): 0.549 µM
TGI (SW-620 colon): 7.1 µM
GI50 (T-47D breast): 0.461 µM
TGI (T-47D breast): 4.53 µM
GI50 (TK-10 renal): 5.18 µM
TGI (TK-10 renal): 15.4 µM
GI50 (U251 CNS): 0.452 µM
TGI (U251 CNS): 12.7 µM
GI50 (UACC-257 melanoma): 1.99 µM
TGI (UACC-257 melanoma): 6.32 µM
GI50 (UACC-62 melanoma): 0.703 µM
TGI (UACC-62 melanoma): 2.4 µM
GI50 (UO-31 renal): 0.342 µM
TGI (UO-31 renal): 1.43 µM
